{"source": "paper PMC5218480", "about": "(PLoS ONE, 2017)", "tested_on": "MV-4-11 cells", "assay": "Gene expression microarray analysis (Affymetrix PrimeView) and GSEA", "type": "cell-based, human", "parameters": "RFU PODN (11730768_x_at) / Fold change /veh PODN (11730768_x_at) / RFU LINC00158 (11744669_a_at) / Fold change /veh LINC00158 (11744669_a_at) / RFU DUSP10 (11751237_a_at) / Fold change /veh DUSP10 (11751237_a_at) / RFU ID3 (11757404_x_at) / Fold change /veh ID3 (11757404_x_at) / RFU PLEKHG5 (11737974_s_at) / Fold change /veh PLEKHG5 (11737974_s_at) / RFU LRRC4B (11730491_at) / Fold change /veh LRRC4B (11730491_at) / RFU GIMAP4 (11747438_a_at) / Fold change /veh GIMAP4 (11747438_a_at) / RFU KRT8 (11758183_x_at) / Fold change /veh KRT8 (11758183_x_at) / RFU CNN1 (11734310_a_at) / Fold change /veh CNN1 (11734310_a_at) / RFU VPS37D (11726825_at) / Fold change /veh VPS37D (11726825_at) / RFU C10orf10 (11716522_x_at) / Fold change /veh C10orf10 (11716522_x_at) / RFU KIR2DL2 /// KIR2DL4 /// KIR2DL5A /// KIR2DL5B /// KIR2DS1 /// KIR2DS2 /// KIR2DS3 /// KIR2DS4 /// KIR3DL3 /// KIR3DL3 /// KIR3DS1 (11738374_at) / Fold change /veh KIR2DL2 /// KIR2DL4 /// KIR2DL5A /// KIR2DL5B /// KIR2DS1 /// KIR2DS2 /// KIR2DS3 /// KIR2DS4 /// KIR3DL3 /// KIR3DL3 /// KIR3DS1 (11738374_at) / RFU C1QL1 (11718748_at) / Fold change /veh C1QL1 (11718748_at) / RFU TMPRSS4 (11747572_a_at) / Fold change /veh TMPRSS4 (11747572_a_at) / RFU HAMP (11756126_x_at) / Fold change /veh HAMP (11756126_x_at) / RFU RNFT2 (11725882_a_at) / Fold change /veh RNFT2 (11725882_a_at) / RFU NR4A2 (11747474_a_at) / Fold change /veh NR4A2 (11747474_a_at) / RFU ABCC12 (11746883_a_at) / Fold change /veh ABCC12 (11746883_a_at) / RFU TMEM136 (11760407_x_at) / Fold change /veh TMEM136 (11760407_x_at) / RFU CLDN22 /// WWC2 (11732394_at) / Fold change /veh CLDN22 /// WWC2 (11732394_at) / RFU HLA-DPB1 (11760878_x_at) / Fold change /veh HLA-DPB1 (11760878_x_at) / RFU SPINT1 (11716480_a_at) / Fold change /veh SPINT1 (11716480_a_at) / RFU GAP43 (11754022_s_at) / Fold change /veh GAP43 (11754022_s_at) / RFU A4GNT (11735810_at) / Fold change /veh A4GNT (11735810_at) / RFU PRB3 (11715151_x_at) / Fold change /veh PRB3 (11715151_x_at) / RFU TUBB4B (11761932_at) / Fold change /veh TUBB4B (11761932_at) / RFU CAPN14 (11732068_a_at) / Fold change /veh CAPN14 (11732068_a_at) / RFU TMCC2 (11721928_a_at) / Fold change /veh TMCC2 (11721928_a_at) / RFU IRGQ (11745062_a_at) / Fold change /veh IRGQ (11745062_a_at) / RFU FAM174B (11720279_a_at) / Fold change /veh FAM174B (11720279_a_at) / RFU TMPRSS4 (11748680_a_at) / Fold change /veh TMPRSS4 (11748680_a_at) / RFU FAM212B (11763350_a_at) / Fold change /veh FAM212B (11763350_a_at) / RFU PLEKHG5 (11743358_a_at) / Fold change /veh PLEKHG5 (11743358_a_at) / RFU ZSCAN30 (11745921_a_at) / Fold change /veh ZSCAN30 (11745921_a_at) / RFU CMKLR1 (11741424_a_at) / Fold change /veh CMKLR1 (11741424_a_at) / RFU LOC101060620 /// MAPK8IP1 (11723275_at) / Fold change /veh LOC101060620 /// MAPK8IP1 (11723275_at) / RFU SPTSSB (11747773_x_at) / Fold change /veh SPTSSB (11747773_x_at) / RFU PRSS12 (11739890_at) / Fold change /veh PRSS12 (11739890_at) / RFU BIN1 (11741810_x_at) / Fold change /veh BIN1 (11741810_x_at) / RFU WNT11 (11732464_a_at) / Fold change /veh WNT11 (11732464_a_at) / RFU C10orf10 (11716521_a_at) / Fold change /veh C10orf10 (11716521_a_at) / RFU C5orf56 (11738089_at) / Fold change /veh C5orf56 (11738089_at) / RFU CYB561 (11721691_x_at) / Fold change /veh CYB561 (11721691_x_at) / RFU ANKRD19P (11752326_a_at) / Fold change /veh ANKRD19P (11752326_a_at) / RFU OR2T12 /// OR2T33 /// OR2T8 (11738714_s_at) / Fold change /veh OR2T12 /// OR2T33 /// OR2T8 (11738714_s_at) / RFU VCAN (11748164_a_at) / Fold change /veh VCAN (11748164_a_at) / RFU JSRP1 (11732532_at) / Fold change /veh JSRP1 (11732532_at) / RFU KRTAP10-11 (11738290_x_at) / Fold change /veh KRTAP10-11 (11738290_x_at) / RFU MYO3A (11730013_a_at) / Fold change /veh MYO3A (11730013_a_at) / RFU EBF3 (11725865_a_at) / Fold change /veh EBF3 (11725865_a_at) / RFU CAMK2N1 (11719241_x_at) / Fold change /veh CAMK2N1 (11719241_x_at) / RFU C5orf56 (11738088_a_at) / Fold change /veh C5orf56 (11738088_a_at) / RFU OLFML3 (11715873_a_at) / Fold change /veh OLFML3 (11715873_a_at) / RFU LOC100653217 /// NTM (11731650_a_at) / Fold change /veh LOC100653217 /// NTM (11731650_a_at) / RFU MAPK11 (11762145_a_at) / Fold change /veh MAPK11 (11762145_a_at) / RFU FIZ1 (11724087_x_at) / Fold change /veh FIZ1 (11724087_x_at) / RFU OASL (11726364_x_at) / Fold change /veh OASL (11726364_x_at) / RFU SOX15 (11748057_x_at) / Fold change /veh SOX15 (11748057_x_at) / RFU CD79A (11719716_a_at) / Fold change /veh CD79A (11719716_a_at) / RFU HIST1H1D (11736915_at) / Fold change /veh HIST1H1D (11736915_at) / RFU CASKIN2 (11723855_a_at) / Fold change /veh CASKIN2 (11723855_a_at) / RFU LOC730098 (11760151_x_at) / Fold change /veh LOC730098 (11760151_x_at) / RFU OR4N2 (11742367_at) / Fold change /veh OR4N2 (11742367_at) / RFU PRRT2 (11749266_a_at) / Fold change /veh PRRT2 (11749266_a_at) / RFU SNX32 (11753110_a_at) / Fold change /veh SNX32 (11753110_a_at) / RFU CDHR5 (11726645_a_at) / Fold change /veh CDHR5 (11726645_a_at) / RFU RCAN1 (11760418_a_at) / Fold change /veh RCAN1 (11760418_a_at) / RFU FAM167A (11723789_a_at) / Fold change /veh FAM167A (11723789_a_at) / RFU FAM26E (11764081_at) / Fold change /veh FAM26E (11764081_at) / RFU ISYNA1 (11749810_s_at) / Fold change /veh ISYNA1 (11749810_s_at) / RFU ACY1 (11761880_at) / Fold change /veh ACY1 (11761880_at) / RFU 11764098_at / Fold change /veh 11764098_at / RFU SAMD14 (11745864_x_at) / Fold change /veh SAMD14 (11745864_x_at) / RFU NPB (11741838_a_at) / Fold change /veh NPB (11741838_a_at) / RFU TMPRSS6 (11731388_a_at) / Fold change /veh TMPRSS6 (11731388_a_at) / RFU KRTAP10-2 (11738614_at) / Fold change /veh KRTAP10-2 (11738614_at) / RFU ARHGAP8 /// PRR5-ARHGAP8 (11727945_x_at) / Fold change /veh ARHGAP8 /// PRR5-ARHGAP8 (11727945_x_at) / RFU KRTAP5-7 /// NADSYN1 (11734609_at) / Fold change /veh KRTAP5-7 /// NADSYN1 (11734609_at) / RFU RASL12 (11751679_a_at) / Fold change /veh RASL12 (11751679_a_at) / RFU CDKN2B (11736163_a_at) / Fold change /veh CDKN2B (11736163_a_at) / RFU PRF1 (11729649_at) / Fold change /veh PRF1 (11729649_at) / RFU, ZNF638 /// ZNF638-IT1 / Fold change vs veh, ZNF638 /// ZNF638-IT1 / RFU, PANK3 / Fold change vs veh, PANK3 / RFU, SH3YL1 / Fold change vs veh, SH3YL1 / RFU, ZEB2 / Fold change vs veh, ZEB2 / RFU, NRIP1 / Fold change vs veh, NRIP1 / RFU, PTTG1IP / Fold change vs veh, PTTG1IP / RFU, CAPN2 / Fold change vs veh, CAPN2 / RFU, MED14 / Fold change vs veh, MED14 / RFU, SNORA58 / Fold change vs veh, SNORA58 / RFU, C1orf63 / Fold change vs veh, C1orf63 / RFU, LRRFIP1 / Fold change vs veh, LRRFIP1 / RFU, NDUFAF7 / Fold change vs veh, NDUFAF7 / RFU, SLC12A2 / Fold change vs veh, SLC12A2 / RFU, IBTK / Fold change vs veh, IBTK / RFU, ESF1 / Fold change vs veh, ESF1 / Fold change vs veh, TMEM50B / RFU, TAOK1 / Fold change vs veh, TAOK1 / RFU, ACBD3 / Fold change vs veh, ACBD3 / RFU, TMA16 / Fold change vs veh, TMA16 / RFU, RWDD3 / Fold change vs veh, RWDD3 / RFU, BCAT1 / Fold change vs veh, BCAT1 / RFU, EDEM3 / Fold change vs veh, EDEM3 / RFU, TMEM33 / Fold change vs veh, TMEM33 / RFU, WDR75 / Fold change vs veh, WDR75 / RFU, AHCTF1 / Fold change vs veh, AHCTF1 / RFU, TFRC / Fold change vs veh, TFRC / RFU, ZDHHC17 / Fold change vs veh, ZDHHC17 / RFU, NOM1 / Fold change vs veh, NOM1 / RFU, ARL8B / Fold change vs veh, ARL8B / RFU, ZBTB11 / Fold change vs veh, ZBTB11 / RFU, TAMM41 / Fold change vs veh, TAMM41 / RFU, KIAA1704 /// LOC100996395 / Fold change vs veh, KIAA1704 /// LOC100996395 / RFU, ING1 / Fold change vs veh, ING1 / RFU, TRMT61B / Fold change vs veh, TRMT61B / RFU, FUBP3 / Fold change vs veh, FUBP3 / RFU, TP53 / Fold change vs veh, TP53 / RFU, TNKS2 / Fold change vs veh, TNKS2 / RFU, ZFP14 / Fold change vs veh, ZFP14 / RFU, ACTR2 / Fold change vs veh, ACTR2 / RFU, PPP3R1 / Fold change vs veh, PPP3R1 / RFU, PIK3R1 / Fold change vs veh, PIK3R1 / RFU, HNRNPA1 / Fold change vs veh, HNRNPA1 / RFU, RNF170 / Fold change vs veh, RNF170 / RFU, ZNF28 / Fold change vs veh, ZNF28 / RFU, RNGTT / Fold change vs veh, RNGTT / RFU, OGT / Fold change vs veh, OGT / RFU, BRD1 / Fold change vs veh, BRD1 / RFU, MARS / Fold change vs veh, MARS / RFU, ZNF655 / Fold change vs veh, ZNF655 / RFU, FAHD1 / Fold change vs veh, FAHD1 / RFU, BDP1 / Fold change vs veh, BDP1 / RFU, LRRCC1 / Fold change vs veh, LRRCC1 / RFU, ARID1A / Fold change vs veh, ARID1A / RFU, ZNF146 / Fold change vs veh, ZNF146 / RFU, ZNF330 / Fold change vs veh, ZNF330 / RFU, GPN3 / Fold change vs veh, GPN3 / RFU, C9orf123 / Fold change vs veh, C9orf123 / RFU, N4BP2L2 / Fold change vs veh, N4BP2L2 / RFU, ARFIP1 / Fold change vs veh, ARFIP1 / RFU, FAM179B / Fold change vs veh, FAM179B / RFU, BCL10 / Fold change vs veh, BCL10 / RFU, UHRF1BP1L / Fold change vs veh, UHRF1BP1L / RFU, BET1 / Fold change vs veh, BET1 / RFU, CNOT2 / Fold change vs veh, CNOT2 / RFU, ZNF268 / Fold change vs veh, ZNF268 / Fold change vs veh, ZNF507 / RFU, DGCR2 / Fold change vs veh, DGCR2 / RFU, WDSUB1 / Fold change vs veh, WDSUB1 / Fold change vs veh, HSP90B1 /// MIR3652 / RFU, ADSS / Fold change vs veh, ADSS / RFU, GK / Fold change vs veh, GK / RFU, ZNF148 / Fold change vs veh, ZNF148 / RFU, TAF9 / Fold change vs veh, TAF9 / RFU, SLC1A5 / Fold change vs veh, SLC1A5 / RFU, SLMO2 / Fold change vs veh, SLMO2 / RFU, ABCC4 / Fold change vs veh, ABCC4 / RFU, LOC101060439 /// RAP1B / Fold change vs veh, LOC101060439 /// RAP1B / RFU, RFX7 / Fold change vs veh, RFX7 / RFU, GTPBP10 / Fold change vs veh, GTPBP10 / RFU, CNEP1R1 / Fold change vs veh, CNEP1R1 / RFU, BIVM-ERCC5 /// ERCC5 / Fold change vs veh, BIVM-ERCC5 /// ERCC5 / RFU, ILF3 / Fold change vs veh, ILF3 / RFU 11762660_at / Fold change /veh 11762660_at / RFU VCAN (11757783_s_at) / Fold change /veh VCAN (11757783_s_at) / RFU DDX43 (11728927_at) / Fold change /veh DDX43 (11728927_at) / RFU KRT8 (11758188_x_at) / Fold change /veh KRT8 (11758188_x_at) / RFU NKD1 (11759106_at) / Fold change /veh NKD1 (11759106_at) / RFU SRD5A1 (11742802_a_at) / Fold change /veh SRD5A1 (11742802_a_at) / RFU TPSAB1 /// TPSB2 (11721975_s_at) / Fold change /veh TPSAB1 /// TPSB2 (11721975_s_at) / RFU GSTM3 (11746129_a_at) / Fold change /veh GSTM3 (11746129_a_at) / RFU IL23R (11737362_x_at) / Fold change /veh IL23R (11737362_x_at) / RFU TMEM51 (11727254_a_at) / Fold change /veh TMEM51 (11727254_a_at) / RFU PIWIL2 (11732686_x_at) / Fold change /veh PIWIL2 (11732686_x_at) / RFU ORM1 (11744905_x_at) / Fold change /veh ORM1 (11744905_x_at) / RFU CCDC152 (11743942_at) / Fold change /veh CCDC152 (11743942_at) / RFU ECM1 (11717891_a_at) / Fold change /veh ECM1 (11717891_a_at) / RFU IL23R (11748794_a_at) / Fold change /veh IL23R (11748794_a_at) / RFU TNFAIP8L3 (11732012_x_at) / Fold change /veh TNFAIP8L3 (11732012_x_at) / RFU MBOAT4 (11741988_at) / Fold change /veh MBOAT4 (11741988_at) / RFU 11764193_at / Fold change /veh 11764193_at / RFU TMEM53 (11763286_at) / Fold change /veh TMEM53 (11763286_at) / RFU MAGEB2 (11727129_at) / Fold change /veh MAGEB2 (11727129_at) / RFU TMEM200A (11744735_a_at) / Fold change /veh TMEM200A (11744735_a_at) / RFU CCDC152 (11751479_a_at) / Fold change /veh CCDC152 (11751479_a_at) / RFU FAM211A (11726209_a_at) / Fold change /veh FAM211A (11726209_a_at) / RFU RGS16 (11746705_a_at) / Fold change /veh RGS16 (11746705_a_at) / RFU VCAN (11755009_s_at) / Fold change /veh VCAN (11755009_s_at) / RFU RHOB (11743442_s_at) / Fold change /veh RHOB (11743442_s_at) / RFU RGS16 (11720943_a_at) / Fold change /veh RGS16 (11720943_a_at) / RFU RGS16 (11720944_at) / Fold change /veh RGS16 (11720944_at) / RFU, VPS4B / Fold change vs veh, VPS4B / RFU, CREB1 / Fold change vs veh, CREB1 / RFU, DNAJC13 / Fold change vs veh, DNAJC13 / RFU, GNAQ / Fold change vs veh, GNAQ / RFU, CDK5R1 / Fold change vs veh, CDK5R1 / RFU, ZRANB3 / Fold change vs veh, ZRANB3 / RFU, CUL4A / Fold change vs veh, CUL4A / RFU, CCNY / Fold change vs veh, CCNY / RFU, UFL1 / Fold change vs veh, UFL1 / RFU, COG3 / Fold change vs veh, COG3 / RFU, DIAPH2 / Fold change vs veh, DIAPH2 / RFU, SKA2 / Fold change vs veh, SKA2 / RFU, AFF3 / Fold change vs veh, AFF3 / RFU, LMF1 / Fold change vs veh, LMF1 / RFU, IPO11 / Fold change vs veh, IPO11 / RFU, DFFB / Fold change vs veh, DFFB / RFU, FOXP1 / Fold change vs veh, FOXP1 / RFU, CARD8 / Fold change vs veh, CARD8 / RFU, STRN3 / Fold change vs veh, STRN3 / RFU, ADK / Fold change vs veh, ADK / RFU, RASSF2 / Fold change vs veh, RASSF2 / RFU, WIPF1 / Fold change vs veh, WIPF1 / RFU, LARP1B / Fold change vs veh, LARP1B / RFU, RASA1 / Fold change vs veh, RASA1 / RFU, RB1 / Fold change vs veh, RB1 / RFU, PPFIA1 / Fold change vs veh, PPFIA1 / RFU, MAT2A / Fold change vs veh, MAT2A / RFU, CCT5 / Fold change vs veh, CCT5 / RFU, WDR92 / Fold change vs veh, WDR92 / RFU, CUX1 / Fold change vs veh, CUX1 / RFU, TTC7A / Fold change vs veh, TTC7A / RFU, TMEM135 / Fold change vs veh, TMEM135 / RFU, DEPTOR / Fold change vs veh, DEPTOR / RFU, CPM / Fold change vs veh, CPM / RFU, DNAJB6 / Fold change vs veh, DNAJB6 / RFU, CACNA2D3 / Fold change vs veh, CACNA2D3 / RFU, DTX4 / Fold change vs veh, DTX4 / RFU, TFCP2 / Fold change vs veh, TFCP2 / RFU, GMCL1 /// GMCL1P1 / Fold change vs veh, GMCL1 /// GMCL1P1 / RFU, AEBP2 / Fold change vs veh, AEBP2 / RFU, SNHG1 /// SNORD22 /// SNORD25 /// SNORD26 /// SNORD27 /// SNORD28 /// SNORD29 /// SNORD31 / Fold change vs veh, SNHG1 /// SNORD22 /// SNORD25 /// SNORD26 /// SNORD27 /// SNORD28 /// SNORD29 /// SNORD31 / Fold change (Aza/veh), C12orf56 (ProbeSet 11735607_a_at) / Fold change (ACY-1035/veh), C12orf56 (ProbeSet 11735607_a_at) / Fold change (Aza/veh), FGFR1OP (ProbeSet 11751329_s_at) / Fold change (ACY-1035/veh), FGFR1OP (ProbeSet 11751329_s_at) / Fold change (Aza/veh), VPS36 (ProbeSet 11739960_a_at) / Fold change (ACY-1035/veh), VPS36 (ProbeSet 11739960_a_at) / RFU SYPL1 (11715823_x_at) / Fold change /veh SYPL1 (11715823_x_at) / RFU IGFBP7 (11715501_s_at) / Fold change /veh IGFBP7 (11715501_s_at) / RFU REEP3 (11722064_at) / Fold change /veh REEP3 (11722064_at) / RFU IGLL1 (11728026_x_at) / Fold change /veh IGLL1 (11728026_x_at): dose or concentration left out as unconfirmed", "details": "ProbeSet 11743882_a_at; LIST D", "data": [{"smiles": "Nc1ncn([C@@H]2O[C@H](CO)[C@@H](O)[C@H]2O)c(=O)n1", "note": "[azacitidine]", "values": [{"measurement": "Fold change vs veh, STRN3", "result": 0.74}]}]}
